From patent publication US20250241901A1, “ACTIVATION OF MNRR1 / CHCHD2 AS A THERAPEUTIC TARGET FOR MITOCHONDRIA ASSOCIATED DISORDERS” (Wayne State University, priority 2024, published 2025)

What was measured:
[1] = Clinical use of nitazoxanide in adult humans; assay type: in vivo, human; details: 500 mg (per adult) twice a day
[2] = tested on: intra-amniotic LPS-induced preterm labor and birth; experiment: Murine model of intra-amniotic LPS-induced preterm labor and birth; assay type: in vivo, mouse
Experimental: FIGS. 2A-2F. Nitazoxanide prevents preterm delivery and improves neonatal mortality in vivo. (FIG. 2A) Schematic illustration depicting the administration of nitazoxanide (marketed under the commercial name Alinia) and LPS in the murine model of preterm birth. (FIG. 2B) Gestational length of mice was obtained using video-monitoring until delivery (n=6-8 animals). (FIG. 2C) Neonatal mortality was determined by calculating the number of dead pups over total litter size (n=6-8 animals). […] No pups from LPS-injected dams survived beyond week 0 of birth. (FIG. 2E) MNRR1 transcript levels were measured in mouse decidual tissue (17.5 dpc). Actin was used as a housekeeping gene to normalize expression (n=4 animals for all except PBS+N, where n=3). (FIG. 2F) Equal amounts of whole placental lysates were separated on an SDS-PAGE gel and probed for MNRR1 levels. Actin was used as a loading control. Gel is representative of data obtained from 2 animals. Keyfor FIGS. 2B, 2C, and 2E: PBS, phosphate buffered saline injection; LPS, lipopolysaccharide injection; PBS+N, PBS injection with oral gavage of nitazoxanide; LPS+N, LPS injection with oral gavage of nitazoxanide. Significance: *, p<0.05; **, p<0.01.
Animal model of intra-amniotic LPS-induced preterm labor and birth: Nitazoxanide (Alinia®; ROMARK, Tampa, FL, USA) was dissolved in sterile injectable water. The nitazoxanide volume was mouse weight dependent (100 μL of nitazoxanide solution at 200 mg/kg was administered for every mouse weight of 10 g). […] Dams were anesthetized on 16.5 dpc by inhalation of 2-3% (Fluriso™ (Isoflurane, USP), Vetone Boise, ID, USA) and 1-2 L/min of oxygen in an induction chamber. Anesthesia was maintained with a mixture of 1.5-2% isoflurane and 1.5-2 L/min of oxygen. Dams were positioned on a heating pad and stabilized with adhesive tape. Fur removal from the abdomen and thorax was performed by applying Nair cream (Church & Dwight Co., Inc., Ewing, NJ, USA) to those areas. Body temperature was detected with a rectal probe (VisualSonics Inc., Toronto, Ontario, Canada) and maintained in the range of 37±1° C. Respiratory and heart rates were monitored by electrodes embedded in the heating pad. An ultrasound probe was fixed and mobilized with a mechanical holder, and the transducer was slowly moved toward the abdomen. […] Following injection, dams were monitored by using a video camera with infrared light (Sony) until delivery. Video monitoring allowed for determination of gestational length, which was calculated from the presence of the vaginal plug (0.5 dpc) until the observation of the first pup in the cage bedding. […] The rates of neonatal mortality at birth were calculated as the number of pups found dead among the total litter size. […]

TNF transcription = experiment: TNF transcript levels in LPS-treated HTR8 cells (real-time PCR); assay type: cell-based, human
Experimental: FIGS. 1A-1D. Nitazoxanide's anti-inflammatory effects are via transcriptional activation of MNRR1. (FIG. 1A) Results of a screen of ˜2400 FDA-approved drugs and natural compounds identified to transcriptionally activate (>1), inhibit (<1), or not affect (=1) MNRR1. Each circle represents one drug and the MNRR1 activator (nitazoxanide (N)) has been highlighted in green. (FIG. 1B) Equal numbers of HTR cells overexpressing the MNRR1-luciferase reporter were plated on a 96 well plate and treated with increasing amounts of nitazoxanide or vehicle (DMSO) for 24 h. EC50 was calculated using the activation of MNRR1 reporter relative to vehicle treated cells using the Quest Graph^TM EC50 Calculator. (FIG. 1C) TNF transcript levels were measured in human placental cells. Actin was used as a housekeeping gene for normalization. Abbreviations: WT, MNRR1-WT; MNRR1-KO, knockout of MNRR1; C, control (water); LPS, lipopolysaccharide; N, nitazoxanide; KO+WT-MNRR1, knockout cells +MNRR1−WT overexpression. n=4 biological replicates; significance: *, p-value<0.05; ns is non-significant. […]
Real-time polymerase chain reaction: Total cellular RNA was extracted from mouse placental tissues or HTR8 cells by using a RNeasy Plus Mini Kit (Qiagen, Germantown, MD, USA), according to the manufacturer's instructions. […] Transcript levels were measured by real-time PCR by using SYBR green on an ABI 7500 system. […]

[3] = 200 mg/kg oral gavage, intra-amniotic LPS 16.5 dpc

CC(=O)Oc1ccccc1C(=O)Nc1ncc([N+](=O)[O-])s1 [nitazoxanide, Nitazoxanide]
drug concentration in the blood [1]: around 600 micromolar | neonatal mortality at birth ([2]; 200 mg/kg oral gavage, LPS-injected dams, compared to controls): significantly reduced | LPS-induced preterm birth (delivery <18.5 dpc) [2, 3]: preventing LPS-induced preterm birth (delivery <18.5 days post coitum (dpc)) in all pregnant dams | gestational age [2, 3]: extended | neonates surviving up to 3 weeks ([2]; neonates born to LPS-injected dams treated with nitazoxanide): almost one-half | LPS-induced activation of TNF transcription (TNF transcription; HTR8 cells, MNRR1-WT): reduced to control levels in an MNRR1-dependent fashion | anti-inflammatory benefit (TNF transcript) in MNRR1 knockout cells (TNF transcription; MNRR1 knockout cells): no nitazoxanide-mediated benefit
